Source: patent publication US10239843B2 (CANCER RESEARCH TECHNOLOGY LIMITED, priority 2014, dated 2019)
Where two headings read alike, the source gives them in different places.

Columns and labels:
PARG in HeLa cell line = assay: PARG cell assay (PAR chain immunofluorescence after MMS); format: cell-based; settings: HeLa cells
Summary of the method: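 HeLa cells were dosed with compound for 1 h, then given MMS at 50 μg/mL final for a further hour. Cells were methanol-fixed, permeabilised and stained overnight at 4° C with anti-PAR monoclonal antibody. Retained nuclear PAR chains, detected by indirect immunofluorescence, indicate PARG inhibition.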

Human Full Length PARG = Human Full Length PARG (Homo sapiens (Human), UniProt Q86W56); assay: PARG enzyme assay (TR-FRET); format: biochemical
Human Full Length PARG, sequence (Q86W56 whole entry): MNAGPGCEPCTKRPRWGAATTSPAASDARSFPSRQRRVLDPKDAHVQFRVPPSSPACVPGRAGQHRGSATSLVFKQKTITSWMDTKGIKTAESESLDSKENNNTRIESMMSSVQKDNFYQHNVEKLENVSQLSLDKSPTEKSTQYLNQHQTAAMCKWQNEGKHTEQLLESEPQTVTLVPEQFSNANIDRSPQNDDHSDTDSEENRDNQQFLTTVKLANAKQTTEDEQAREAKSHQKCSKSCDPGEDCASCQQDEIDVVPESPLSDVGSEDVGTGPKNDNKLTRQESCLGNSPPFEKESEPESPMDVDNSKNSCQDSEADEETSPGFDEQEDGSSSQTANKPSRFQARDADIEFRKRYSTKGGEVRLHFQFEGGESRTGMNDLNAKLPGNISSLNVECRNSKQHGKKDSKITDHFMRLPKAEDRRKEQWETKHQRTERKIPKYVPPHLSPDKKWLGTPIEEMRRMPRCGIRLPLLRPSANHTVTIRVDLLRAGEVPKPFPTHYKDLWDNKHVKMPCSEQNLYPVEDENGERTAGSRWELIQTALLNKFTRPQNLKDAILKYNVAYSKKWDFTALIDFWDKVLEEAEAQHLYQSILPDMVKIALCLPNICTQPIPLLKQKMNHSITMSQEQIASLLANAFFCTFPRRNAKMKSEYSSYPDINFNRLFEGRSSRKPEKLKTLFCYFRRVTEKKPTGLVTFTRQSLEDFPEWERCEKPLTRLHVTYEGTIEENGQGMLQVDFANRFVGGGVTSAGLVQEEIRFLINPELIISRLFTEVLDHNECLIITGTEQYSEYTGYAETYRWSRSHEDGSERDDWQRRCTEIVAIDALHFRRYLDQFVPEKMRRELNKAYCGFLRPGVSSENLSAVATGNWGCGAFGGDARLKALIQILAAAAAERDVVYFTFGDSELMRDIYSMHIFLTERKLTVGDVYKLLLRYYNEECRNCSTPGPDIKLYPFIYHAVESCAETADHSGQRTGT

[1] = Homo sapiens, MMS treatment, read-out: PARG Cell IC50
[2] = Homo sapiens, MMS 50 μg/mL, read-out: PARG Cell IC50 Geomean
[3] = read-out: PARG Biochem IC50 Geomean
[4] = MMS treatment, read-out: PARG Cell IC50
[5] = MMS 50 μg/mL, read-out: PARG Cell IC50 Geomean

Row | SMILES | IC50 (PARG in HeLa cell line; [1]) | IC50 (Human Full Length PARG; read-out: PARG Biochem IC50) | IC50 (Human Full Length PARG; [3]) | further results
1 | Cn1c(=O)n(CCC#N)c(=O)c2cc(S(=O)(=O)NC3(C)CC3)ccc21 [Example 497, 3-(2-Cyanoethyl)-1-methyl-N-(1-methylcyclopropyl)-2,4-dioxo-quinazoline-6-sulfonamide] | 2250 nM | 2710 nM | – | –
2 | Cn1c(=O)n(Cc2cnn(CC#N)c2)c(=O)c2cc(S(=O)(=O)NC3(C)CC3)ccc21 [Example 217] | – | – | 365 nM | IC50 (PARG in HeLa cell line; [2]): 529 nM
3 | CC1(NS(=O)(=O)c2ccc3c(c2)c(=O)n(CC#N)c(=O)n3CC2CC2)CC1 [Example 193] | – | – | 277 nM | IC50 (PARG in HeLa cell line; [2]): 556 nM
4 | Cc1cc(Cn2c(=O)c3cc(S(=O)(=O)NC4(CF)CC4)ccc3n(CC3CCOC3)c2=O)on1 (stereo not shown) [Example 524, N-[1-(Fluoromethyl)cyclopropyl]-3-[(3-methylisoxazol-5-yl)methyl]-2,4-dioxo-1-(tetrahydrofuran-3-ylmethyl)quinazoline-6-sulfonamide] | 310 nM | 125 nM | – | –
5 | Cn1cc(Cn2c(=O)c3cc(S(=O)(=O)NC4(C)CC4)c(F)cc3n(CC3(C)COC3)c2=O)cn1 [Example 398, 7-Fluoro-3-((1-methyl-1H-pyrazol-4-yl)methyl)-N-(1-methylcyclopropyl)-1-((3-methyloxetan-3-yl)methyl)-2,4-dioxo-1,2,3,4-tetrahydroquinazoline-6-sulfonamide] | 257 nM | 44 nM | – | –
6 | Cc1cc(Cn2c(=O)c3cc(S(=O)(=O)NC4(CF)CC4)ccc3n(Cc3ccc(F)cc3)c2=O)on1 [Example 518, N-[1-(Fluoromethyl)cyclopropyl]-1-[(4-fluorophenyl)methyl]-3-[(3-methylisoxazol-5-yl)methyl]-2,4-dioxo-quinazoline-6-sulfonamide] | 95 nM | 117 nM | – | –
7 | Cc1cc(Cn2c(=O)n(Cc3cnn(C)c3)c(=O)c3cc(S(=O)(=O)NC4(C)CC4)c(F)cc32)on1 [Example 391, 7-Fluoro-N-(1-methylcyclopropyl)-1-[(3-methylisoxazol-5-yl)methyl]-3-[(1-methylpyrazol-4-yl)methyl]-2,4-dioxo-quinazoline-6-sulfonamide] | – | – | 24 nM | IC50 (PARG in HeLa cell line; [5]): 67 nM
8 | Cc1cc(Cn2c(=O)c3cc(S(=O)(=O)NC4(C)CC4)ccc3n(CC3CCCC3)c2=O)on1 [Example 289] | – | – | 280 nM | IC50 (PARG in HeLa cell line; [5]): 129 nM
9 | Cc1cc(Cn2c(=O)c3cc(S(=O)(=O)NC4(C)CC4)ccc3n(CC3CCCCO3)c2=O)on1 (stereo not shown) [Example 266] | – | – | 296 nM | IC50 (PARG in HeLa cell line; [5]): 214 nM
10 | Cn1cc(Cn2c(=O)c3cc(S(=O)(=O)NC4(C)CC4)ccc3n(CC3CCCCC3)c2=O)cn1 [Example 280] | – | – | 177 nM | IC50 (PARG in HeLa cell line; [2]): 103 nM
11 | Cc1cc(Cn2c(=O)c3cc(S(=O)(=O)NC4(C)CC4)cc(-c4cnn(C)c4)c3n(C)c2=O)on1 [Example 483, 1-Methyl-N-(1-methylcyclopropyl)-3-[(3-methylisoxazol-5-yl)methyl]-8-(1-methylpyrazol-4-yl)-2,4-dioxo-quinazoline-6-sulfonamide] | 845 nM | 1690 nM | – | –
12 | Cc1cc(Cn2c(=O)c3cc(S(=O)(=O)NC4(C)CC4)ccc3n(CCF)c2=O)on1 [Example 411, 1-(2-Fluoroethyl)-N-(1-methylcyclopropyl)-3-[(3-methylisoxazol-5-yl)methyl]-2,4-dioxo-quinazoline-6-sulfonamide] | 104 nM | 409 nM | – | –
13 | Cn1c(=O)n(Cc2nncs2)c(=O)c2cc(S(=O)(=O)NC3(CF)CC3)ccc21 [Example 624, N-[1-(Fluoromethyl)cyclopropyl]-1-methyl-2,4-dioxo-3-(1,3,4-thiadiazol-2-ylmethyl)quinazoline-6-sulfonamide] | 4350 nM | 1040 nM | – | –
14 | Cc1cc(Cn2c(=O)c3cc(S(=O)(=O)NC4(C)CC4)ccc3n(Cc3ccc(F)cc3)c2=O)on1 [Example 199] | – | – | 92 nM | IC50 (PARG in HeLa cell line; [5]): 99 nM
15 | Cc1nc(C)c(Cn2c(=O)n(C)c(=O)c3cc(S(=O)(=O)NC4(C#N)CC4)ccc32)s1 [Example 204] | – | – | 118 nM | IC50 (PARG in HeLa cell line; [2]): 646 nM
16 | Cc1ncc(Cn2c(=O)c3cc(S(=O)(=O)NC4(C#N)CC4)ccc3n(CC3CC3)c2=O)s1 [Example 399, N-(1-Cyanocyclopropyl)-1-(cyclopropylmethyl)-3-[(2-methylthiazol-5-yl)methyl]-2,4-dioxo-quinazoline-6-sulfonamide] | 87 nM | 31 nM | – | –
17 | Cc1cc(Cn2c(=O)c3cc(S(=O)(=O)NC4(C)CC4)ccc3n(Cc3cnn(C(C)C)c3)c2=O)on1 [Example 473, 1-[(1-Isopropylpyrazol-4-yl)methyl]-N-(1-methylcyclopropyl)-3-[(3-methylisoxazol-5-yl)methyl]-2,4-dioxo-quinazoline-6-sulfonamide] | – | 196 nM | – | IC50 (PARG in HeLa cell line; [4]): 144 nM
18 | Cc1cc(Cn2c(=O)c3cc(S(=O)(=O)NC4(C)CC4)ccc3n(CC3CCC(=O)CC3)c2=O)on1 [Example 421, N-(1-Methylcyclopropyl)-3-[(3-methylisoxazol-5-yl)methyl]-2,4-dioxo-1-[(4-oxocyclohexyl)methyl]quinazoline-6-sulfonamide] | – | 193 nM | – | IC50 (PARG in HeLa cell line; [4]): 589 nM
19 | Cc1cc(Cn2c(=O)c3cc(S(=O)(=O)NC4(C)CC4)ccc3n(CC(=O)N3CCC3)c2=O)on1 [Example 414, 1-[2-(Azetidin-1-yl)-2-oxo-ethyl]-N-(1-methylcyclopropyl)-3-[(3-methylisoxazol-5-yl)methyl]-2,4-dioxo-quinazoline-6-sulfonamide] | – | 2080 nM | – | IC50 (PARG in HeLa cell line; [4]): 9220 nM
20 | COc1cccc(Cn2c(=O)n(CC#N)c(=O)c3cc(S(=O)(=O)NC4(C)CC4)ccc32)c1 [Example 187] | – | – | 467 nM | IC50 (PARG in HeLa cell line; [2]): 343 nM
21 | Cn1cc(Cn2c(=O)[nH]c3cc(F)c(S(=O)(=O)NC4(C#N)CC4)cc3c2=O)cn1 [Example 387, N-(1-Cyanocyclopropyl)-7-fluoro-3-[(1-methylpyrazol-4-yl)methyl]-2,4-dioxo-1H-quinazoline-6-sulfonamide] | – | – | 452 nM | IC50 (PARG in HeLa cell line; [2]): 1520 nM

Second part, led by results:

Row | IC50 (PARG in HeLa cell line; [1]) | IC50 (Human Full Length PARG; read-out: PARG Biochem IC50) | IC50 (Human Full Length PARG; [3]) | SMILES | further results
22 | – | 3160 nM | – | Cn1ncc(Cn2c(=O)c3cc(S(=O)(=O)NC4(CF)CC4)ccc3n(C)c2=O)n1 [Example 626, N-[1-(Fluoromethyl)cyclopropyl]-1-methyl-3-[(2-methyltriazol-4-yl)methyl]-2,4-dioxo-quinazoline-6-sulfonamide] | IC50 (PARG in HeLa cell line; [4]): 1810 nM
23 | 530 nM | 82 nM | – | Cn1cc(Cn2c(=O)c3cc(S(=O)(=O)NC4(CF)CC4)ccc3n(Cc3cc[nH]n3)c2=O)cn1 [Example 586, N-[1-(Fluoromethyl)cyclopropyl]-3-[(1-methylpyrazol-4-yl)methyl]-2,4-dioxo-1-(1H-pyrazol-3-ylmethyl)quinazoline-6-sulfonamide] | –
24 | 178 nM | 194 nM | – | CCOCCn1c(=O)n(Cc2cnn(C)c2)c(=O)c2cc(S(=O)(=O)NC3(CF)CC3)ccc21 [Example 612] | –
25 | 330 nM | 349 nM | – | Cn1cc(Cn2c(=O)c3cc(S(=O)(=O)NC4(CF)CC4)ccc3n(Cc3ncccc3F)c2=O)cn1 [Example 542, N-[1-(Fluoromethyl)cyclopropyl]-1-[(3-fluoro-2-pyridyl)methyl]-3-[(1-methylpyrazol-4-yl)methyl]-2,4-dioxo-quinazoline-6-sulfonamide] | –
26 | 240 nM | 82 nM | – | Cn1cc(Cn2c(=O)c3cc(S(=O)(=O)NC4(CF)CC4)ccc3n(CC3CCOC3)c2=O)cn1 (stereo not shown) [Example 598, N-[1-(Fluoromethyl)cyclopropyl]-3-[(1-methylpyrazol-4-yl)methyl]-2,4-dioxo-1-(tetrahydrofuran-3-ylmethyl)quinazoline-6-sulfonamide] | –
27 | 287 nM | 648 nM | – | Cn1cc(Cn2c(=O)c3cc(S(=O)(=O)NC4(CF)CC4)ccc3n(C)c2=O)cn1 [Example 408, N-[1-(Fluoromethyl)cyclopropyl]-1-methyl-3-[(1-methylpyrazol-4-yl)methyl]-2,4-dioxo-quinazoline-6-sulfonamide] | –
28 | 73 nM | 160 nM | – | Cc1nc(Cn2c(=O)n(Cc3cnn(C)c3)c(=O)c3cc(S(=O)(=O)NC4(CF)CC4)ccc32)cs1 [Example 582, N-[1-(Fluoromethyl)cyclopropyl]-3-[(1-methylpyrazol-4-yl)methyl]-1-[(2-methylthiazol-4-yl)methyl]-2,4-dioxo-quinazoline-6-sulfonamide] | –
29 | – | – | 353 nM | CC(=O)Cn1c(=O)n(Cc2cnn(C)c2)c(=O)c2cc(S(=O)(=O)NC3(C)CC3)ccc21 [Example 367] | IC50 (PARG in HeLa cell line; [5]): 340 nM
30 | – | – | 47 nM | Cn1cc(Cn2c(=O)c3cc(S(=O)(=O)NC4(C)CC4)ccc3n(CC3(C)COC3)c2=O)cn1 [Example 294] | IC50 (PARG in HeLa cell line; [2]): 226 nM
31 | – | – | 209 nM | COCCCn1c(=O)n(Cc2cnn(C)c2)c(=O)c2cc(S(=O)(=O)NC3(C)CC3)ccc21 [Example 239] | IC50 (PARG in HeLa cell line; [5]): 127 nM
32 | – | – | 44 nM | Cn1cc(Cn2c(=O)c3cc(S(=O)(=O)NC4(C#N)CC4)ccc3n(Cc3cnn(C)c3)c2=O)cn1 [Example 378] | IC50 (PARG in HeLa cell line; [2]): 1960 nM
33 | 93 nM | 263 nM | – | Cn1cc(Cn2c(=O)c3cc(S(=O)(=O)NC4(C)CC4)ccc3n(CC(F)F)c2=O)cn1 [Example 599, 1-(2,2-Difluoroethyl)-N-(1-methylcyclopropyl)-3-[(1-methylpyrazol-4-yl)methyl]-2,4-dioxo-quinazoline-6-sulfonamide] | –
34 | – | 24 nM | – | Cc1cc(Cn2c(=O)n(Cc3cnn(C)c3)c(=O)c3cc(S(=O)(=O)NC4(CF)CC4)ccc32)on1 [Example 441, N-[1-(Fluoromethyl)cyclopropyl]-1-[(3-methylisoxazol-5-yl)methyl]-3-[(1-methylpyrazol-4-yl)methyl]-2,4-dioxo-quinazoline-6-sulfonamide] | IC50 (PARG in HeLa cell line; [4]): 74 nM
35 | – | – | 47 nM | Cn1cc(Cn2c(=O)c3cc(S(=O)(=O)NC4(C#N)CC4)ccc3n(CC3CC3)c2=O)cn1 [Example 346] | IC50 (PARG in HeLa cell line; [2]): 390 nM
